Measured values: patent US9115137B2, “2,3,4,5-tetrahydro-1H-pyrido[4,3-B]indole compounds and methods of use thereof” (priority 2008, dated 2015)

What was measured:
[1] = target: T1, human recombinant histamine H1 receptor (Homo sapiens, UniProt P35367); experiment: Histamine H1 radioligand binding ([3H]Pyrilamine); settings: compound at 1 μM; CHO cells; read-out: Histamine Binding (1 μM) H1, percent inhibition of specific binding
T1 construct: expressed in transfected cells; host or cells: CHO cells
T1 sequence (P35367 whole entry): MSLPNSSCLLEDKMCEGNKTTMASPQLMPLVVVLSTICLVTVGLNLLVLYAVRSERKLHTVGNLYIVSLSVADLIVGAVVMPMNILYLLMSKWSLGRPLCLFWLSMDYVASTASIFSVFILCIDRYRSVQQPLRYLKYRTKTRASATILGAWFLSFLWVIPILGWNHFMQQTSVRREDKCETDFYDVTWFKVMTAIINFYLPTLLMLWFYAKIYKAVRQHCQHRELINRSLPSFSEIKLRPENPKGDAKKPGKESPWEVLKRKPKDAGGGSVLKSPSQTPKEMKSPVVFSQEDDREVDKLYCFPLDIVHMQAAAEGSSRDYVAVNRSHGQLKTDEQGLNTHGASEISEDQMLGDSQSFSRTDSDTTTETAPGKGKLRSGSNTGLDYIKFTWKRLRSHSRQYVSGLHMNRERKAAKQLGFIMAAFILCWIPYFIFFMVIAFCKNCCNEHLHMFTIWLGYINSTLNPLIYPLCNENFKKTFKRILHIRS
Protocol: To evaluate in radioligand binding assays the activity of compounds of the invention, human recombinant histamine H1 receptor expressed in Chinese hamster ovary (CHO) cells (De Backer, M. D. et al., Biochem. Biophys. Res. Comm. 197(3):1601, 1993) in a modified Tris-HCl buffer (50 mM Tris-HCl, pH 7.4, 2 mM MgCl2, 100 mM NaCl, 250 mM Sucrose) was used. Compounds of the invention were incubated with 1.2 nM [^3H]Pyrilamine for 180 minutes at 25° C. Non-specific binding was estimated in the presence of 1 μM pyrilamine. Receptor proteins were filtered and washed, the filters were then counted to determine [^3H]Pyrilamine specifically bound. Compounds were screened at 1 μM, using 1% DMSO as vehicle. Biochemical assay results are presented as the percent inhibition of specific binding in Table 5.

[2] = target: T2, human recombinant serotonin (5-Hydroxytryptamine) 5-HT2A receptor (Homo sapiens, UniProt P28223); experiment: Serotonin 5-HT2A radioligand binding ([3H]Ketanserin); settings: compound at 1 μM; CHO-K1 cells; read-out: Serotonin (1 μM) 5-HT2A, percent inhibition of specific binding
T2 construct: expressed in transfected cells; host or cells: CHO-K1 cells
T2 sequence (P28223 whole entry): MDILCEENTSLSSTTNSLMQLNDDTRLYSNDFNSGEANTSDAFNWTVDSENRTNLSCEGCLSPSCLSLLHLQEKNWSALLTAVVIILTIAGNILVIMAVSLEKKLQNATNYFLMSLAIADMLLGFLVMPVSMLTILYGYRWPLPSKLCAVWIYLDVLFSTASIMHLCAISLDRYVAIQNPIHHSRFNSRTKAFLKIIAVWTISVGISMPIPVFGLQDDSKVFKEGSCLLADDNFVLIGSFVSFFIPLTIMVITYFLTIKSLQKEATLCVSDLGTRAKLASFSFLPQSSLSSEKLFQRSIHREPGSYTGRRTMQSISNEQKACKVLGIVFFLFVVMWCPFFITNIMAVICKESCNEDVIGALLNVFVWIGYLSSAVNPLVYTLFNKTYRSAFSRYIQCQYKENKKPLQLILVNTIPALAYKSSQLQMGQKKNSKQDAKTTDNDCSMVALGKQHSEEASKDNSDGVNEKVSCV
Protocol: To evaluate in radioligand binding assays the activity of compounds of the invention, human recombinant serotonin (5-Hydroxytryptamine) 5-HT2A receptor expressed in Chinese hamster ovary (CHO-K1) cells (Bonhaus, D. W. et al. Br. J. Pharmacol. 115:622, 1995; Saucier, C. and Albert, P. R., J. Neurochem. 68:1998, 1997) in a 50 mM Tris-HCl buffer, pH 7.4, was used. Compounds of the invention were incubated with 0.5 nM [^3H]Ketanserin for 60 minutes at 25° C. Non-specific binding was estimated in the presence of 1 μM Mianserin. Receptor proteins were filtered and washed, the filters were then counted to determine [^3H] Ketanserin specifically bound. Compounds were screened at 1 μM or lower, using 1% DMSO as vehicle. Biochemical assay results are presented as the percent inhibition of specific binding in Table 7.

Row | Compound | inhibition at 1 µM [1] | inhibition at 1 µM [2]
1 | Cc1ccc2c(c1)c1c(n2CCC(=O)Nc2ccccc2)CCN(C)C1 [Compound 29] | 84% | 96%
2 | CN1CCc2c(c3cc(Cl)ccc3n2CCC(=O)OCC2CCCCC2)C1 [Compound 20, cyclohexylmethyl 3-(8-chloro-1,2,3,4-tetrahydro-2-methylpyrido[4,3-b]indol-5-yl)propanoate] | 95% | 102%
3 | Cc1ccc2c(c1)c1c(n2CCNC(=O)c2ccncc2C)CCN(C)C1 [Compound 69, N-(2-(1,2,3,4-tetrahydro-2,8-dimethylpyrido[4,3-b]indol-5-yl)ethyl)-3-methylpyridine-4-carboxamide] | 88% | 30%
4 | Cc1ccc2c(c1)c1c(n2CCC(=O)NC(C)C)CCN(C)C1 [Compound 53] | 51% | 39%
5 | CN1CCc2c(c3cc(Cl)ccc3n2CCO)C1 [CD89, 2-(8-chloro-2-methyl-3,4-dihydro-1H-pyrido[4,3-b]indol-5(2H)-yl)ethanol] | 92% | 70%
6 | Cc1ccc2c(c1)c1c(n2CCNC(=O)c2ccc(F)cc2)CCN(C)C1 [Compound 66, 4-fluoro-N-(2-(1,2,3,4-tetrahydro-2,8-dimethylpyrido[4,3-b]indol-5-yl)ethyl)benzamide] | 66% | 98%
7 | CN1CCc2c(c3cc(Cl)ccc3n2CCC#N)C1 [CD94, 3-(8-chloro-2-methyl-3,4-dihydro-1H-pyrido[4,3-b]indol-5(2H)-yl)propanenitrile] | 97% | 60%
8 | CC(C)OC(=O)CCn1c2c(c3cc(Cl)ccc31)CN(C)CC2 [Compound 17, isopropyl 3-(8-chloro-1,2,3,4-tetrahydro-2-methylpyrido[4,3-b]indol-5-yl)propanoate] | 96% | 84%
9 | CN1CCc2c(c3cc(Cl)ccc3n2CC(=O)OCC2CCCCC2)C1 [Compound 14, cyclohexylmethyl 2-(8-chloro-1,2,3,4-tetrahydro-2-methylpyrido[4,3-b]indol-5-yl)acetate] | 98% | 103%
10 | CN1CCc2c(c3cc(Cl)ccc3n2CC(=O)OC(C)(C)C)C1 [Compound 12, tert-butyl 2-(8-chloro-1,2,3,4-tetrahydro-2-methylpyrido[4,3-b]indol-5-yl)acetate] | 101% | 81%
11 | CN1CCc2c(c3cc(Cl)ccc3n2CCC(=O)OC2CCCC2)C1 [Compound 21, cyclopentyl 3-(8-chloro-1,2,3,4-tetrahydro-2-methylpyrido[4,3-b]indol-5-yl)propanoate] | 98% | 98%
12 | CCOC(=O)Cn1c2c(c3cc(C)ccc31)CN(C)CC2 [CD57, ethyl 2-(1,2,3,4-tetrahydro-2,8-dimethylpyrido[4,3-b]indol-5-yl)acetate] | 100% | 92%
13 | CN1CCc2c(c3cc(Cl)ccc3n2CCCO)C1 [CD87, 3-(8-chloro-2-methyl-3,4-dihydro-1H-pyrido[4,3-b]indol-5(2H)-yl)propan-1-ol] | 97% | 66%
14 | Cc1ccc2c(c1)c1c(n2CC(=O)NC(C)(C)C)CCN(C)C1 [Compound 24, N-tert-butyl-2-(1,2,3,4-tetrahydro-2,8-dimethylpyrido[4,3-b]indol-5-yl)acetamide] | 44% | 9%
15 | CN1CCc2c(c3cc(Cl)ccc3n2CCC(N)=O)C1 [Compound 67, 3-(8-chloro-1,2,3,4-tetrahydro-2-methylpyrido[4,3-b]indol-5-yl)propanamide] | 70% | 55%
16 | Cc1ccc2c(c1)c1c(n2CCBr)CCN(C)C1 [CD91, 5-(2-bromoethyl)-2,8-dimethyl-2,3,4,5-tetrahydro-1H-pyrido[4,3-b]indole] | 98% | 96%
